The source of these data is paper PMC6792352, “Limited Chemical Structural Diversity Found to Modulate Thyroid Hormone Receptor in the Tox21 Chemical Library” (Environmental Health Perspectives, 2019).

SMILES strings stand for the structures. Counter-ions that a name gives are not always drawn. Where only a bound is given, the exact number is not on record here.

The nature of one data set: in vitro. The conditions noted are these: rat, gh3-tre-luc cells, AC50 (uM) modified / 1000.
The compound `CC1=CC(O)CC(C)(C)C1` (stereo not shown) [3,5,5-Trimethyl-2-cyclohexen-1-ol] came in with a half-maximal cytotoxic concentration (CC50) at 24 h greater than 90 µM.
The same measure, in the same setting: the result for `CC(CC=O)CC(C)(C)C` (stereo not shown) [3,5,5-Trimethylhexanal] reads greater than 90 µM; that for `CC(CC(=O)O)CC(C)(C)C` (stereo not shown) [3,5,5-Trimethylhexanoic acid], greater than 90 µM.
Still for that read-out and setting: the result for `CC(CC(=O)Cl)CC(C)(C)C` (stereo not shown) [3,5,5-Trimethylhexanoyl chloride] reads greater than 90 µM; that for `CC(=O)OCCC(C)CC(C)(C)C` (stereo not shown) [3,5,5-Trimethylhexyl acetate], greater than 90 µM; that for `Oc1nc(Cl)c(Cl)cc1Cl` [3,5,6-Trichloro-2-pyridinol], greater than 90 µM.
The same measure, in the same setting: the result for `Nc1cc(N)cc(C(=O)O)c1` [3,5-Diaminobenzoic acid] reads greater than 90 µM; that for `O=C(O)c1cc(Br)c(O)c(Br)c1` [3,5-Dibromo-4-hydroxybenzoic acid], greater than 90 µM.
For the compound `Nc1cc(Cl)cc(Cl)c1` [3,5-Dichloroaniline], the CC50 at 24 h was greater than 90 µM.
The same measure, in the same setting: the result for `O=C(O)c1cc(Cl)cc(Cl)c1` [3,5-Dichlorobenzoic acid] reads greater than 90 µM; that for `O=C(Cl)c1cc(Cl)cc(Cl)c1` [3,5-Dichlorobenzoyl chloride], greater than 90 µM; that for `Oc1cc(Cl)cc(Cl)c1` [3,5-Dichlorophenol], greater than 90 µM.
Compound `O=C(Nc1ccc(Cl)c(Cl)c1)c1cc(Cl)cc(Cl)c1O` [3,5-Dichlorosalicyl-3,4-dichloroanilide] came in with a CC50 at 24 h of 2.97 µM.
Compound `O=C(O)c1cc(Cl)cc(Cl)c1O` [3,5-Dichlorosalicylic acid] gave a CC50 at 24 h greater than 90 µM.
In turn, `CCCC1C(CC)=CC(CC)=CN1c1ccccc1` (stereo not shown) [3,5-Diethyl-1-phenyl-2-propyl-1,2-dihydropyridine] had a CC50 at 24 h greater than 90 µM.
Same read-out and setting: for `CC1CC(C)C(=O)C1=O` (stereo not shown) [3,5-Dimethyl-1,2-cyclopentanedione] the value was greater than 90 µM.
The same measure, in the same setting: for `C#CC(C)(O)CC(C)C` (stereo not shown) [3,5-Dimethyl-1-hexyn-3-ol] the value was greater than 90 µM; for `Cc1cc(C)cc(N)c1` [3,5-Dimethylaniline], greater than 90 µM.
On the same count and under the same terms, the result for `Cc1cc(C)cc(O)c1` [3,5-Dimethylphenol] reads greater than 90 µM; that for `CCCCOCCOCCOCCOCCO` [3,6,9,12-Tetraoxahexadecan-1-ol], greater than 90 µM; that for `C=COCCOCCOCCOC=C` [3,6,9,12-Tetraoxatetradeca-1,13-diene], greater than 90 µM.
`CC1OC(=O)C(C)OC1=O` (stereo not shown) [3,6-Dimethyl-2,5-dioxo-1,4-dioxane] yielded a CC50 at 24 h greater than 90 µM.
Still for that read-out and setting: for `COc1ccc(C2NC(=S)N3C(c4ccc(OC)c(OC)c4)NC(=S)N23)cc1OC` (stereo not shown) [3,7-Bis(3,4-dimethoxyphenyl)tetrahydro-1H,5H-[1,2,4]triazolo[1,2-a][1,2,4]triazole-1,5-dithione] the value was 0.208 µM; for `CC(C)=CCC/C(C)=C/C=O` [3,7-Dimethyl-2,6-octadienal], greater than 90 µM; for `CCC(C)(O)CCCC(C)C` (stereo not shown) [3,7-Dimethyl-3-octanol], greater than 90 µM.
Same read-out and setting: the result for `CC=C(C)C(=O)OCCC(C)CCC=C(C)C` (stereo not shown) [3,7-Dimethyloct-6-en-1-yl 2-methylbut-2-enoate] reads greater than 90 µM; that for `CC(C)=CCCC(C)CCOC=O` (stereo not shown) [3,7-Dimethyloct-6-en-1-yl formate], greater than 90 µM.
On to `CCC(C)(O)CCC=C(C)C` (stereo not shown) [3,7-Dimethyloct-6-en-3-ol], for which the CC50 at 24 h is greater than 90 µM.
In turn, `C=CC(C)(CCC=C(C)C)OC(=O)CC` (stereo not shown) [3,7-Dimethylocta-1,6-dien-3-yl propanoate] displayed a CC50 at 24 h greater than 90 µM.
The compound `CC(C)CCCC(C)CCO` (stereo not shown) [3,7-Dimethyloctan-1-ol] yielded a CC50 at 24 h greater than 90 µM.
`CCC(C)(CCCC(C)C)OC(C)=O` (stereo not shown) [3,7-Dimethyloctan-3-yl acetate]: the CC50 at 24 h was greater than 90 µM.
On the same count and under the same terms, for `CC(C)CCCC(C)CC=O` (stereo not shown) [3,7-Dimethyloctanal] the value was greater than 90 µM; for `CC(CCO)CCCC(C)(C)O` (stereo not shown) [3,7-Dimethyloctane-1,7-diol], greater than 90 µM; for `CCCC(=O)C(CC)Sc1ccoc1C` (stereo not shown) [3-(2-Methyl-3-furylthio)-4-heptanone], greater than 90 µM.
Same read-out and setting: the result for `CC1=NN(c2cccc(S(=O)(=O)O)c2)C(=O)C1` [3-(3-Methyl-5-oxo-4,5-dihydro-1H-pyrazol-1-yl)benzenesulfonic acid] reads greater than 90 µM; that for `CC(C)(C)c1ccc(CCC=O)cc1` [3-(4-tert-Butylphenyl)propanal], greater than 90 µM; that for `CC1C2CC(CC2C2CCCC(O)C2)C1(C)C` (stereo not shown) [3-(5,5,6-Trimethylbicyclo[2.2.1]hept-2-yl)cyclohexanol], 54.6 µM.
In the case of `CCCCC(CC)COCCC#N` (stereo not shown) [3-((2-Ethylhexyl)oxy)propionitrile], the CC50 at 24 h is greater than 90 µM.
On the same count and under the same terms, the result for `CCCCC(CC)COCCCN` (stereo not shown) [3-((2-Ethylhexyl)oxy)propylamine] reads greater than 90 µM; that for `CCN(Cc1cccc(S(=O)(=O)O)c1)c1ccccc1` [3-((Ethylphenylamino)methyl)benzenesulfonic acid], greater than 90 µM.
The compound `NCc1cccnc1` [3-(Aminomethyl)pyridine] registered a CC50 at 24 h greater than 90 µM.
Still for that read-out and setting: the result for `O=c1c2ccccc2nnn1CCl` [3-(Chloromethyl)-1,2,3-benzotriazin-4(3H)-one] reads greater than 90 µM; that for `ClCc1cccnc1` [3-(Chloromethyl)pyridine hydrochloride], greater than 90 µM; that for `CN(C)CCCN` [3-(Dimethylamino)propylamine], greater than 90 µM.
Same read-out and setting: the result for `CCCCCCCCCC/C=C/C1CC(=O)OC1=O` (stereo not shown) [3-(Dodecenyl)dihydro-2,5-furandione] reads greater than 90 µM.
Still for that read-out and setting: the result for `CC(O)C(CO)C(C)O` (stereo not shown) [3-(Hydroxymethyl)pentane-2,4-diol] reads greater than 90 µM; that for `CSCCC=O` [3-(Methylthio)propanal], greater than 100 µM.
For the compound `CSCCCN=C=S` [3-(Methylthio)propyl isothiocyanate], the CC50 at 24 h was greater than 90 µM.
Still for that read-out and setting: for `CCCCCCCCCCCCCCCCCCOCC(O)CO` (stereo not shown) [3-(Octadecyloxy)-1,2-propanediol] the value was greater than 50 µM; for `CCCCCCCCOCCCN` [3-(Octyloxy)propan-1-amine], 11.8 µM; for `CCCCCCCCOCCC#N` [3-(Octyloxy)propanenitrile], greater than 90 µM.
Same read-out and setting: the result for `C=C(C)C(=O)OCCC[Si](Cl)(Cl)Cl` [3-(Trichlorosilyl)propyl methacrylate] reads greater than 90 µM; that for `CCO[Si](CCCS)(OCC)OCC` [3-(Triethoxysilyl)propane-1-thiol], greater than 90 µM; that for `CCO[Si](CCC#N)(OCC)OCC` [3-(Triethoxysilyl)propionitrile], greater than 90 µM.
The compound `Nc1cccc(C(F)(F)F)c1` [3-(Trifluoromethyl)aniline] showed a CC50 at 24 h greater than 90 µM.
`O=C(O)c1cccc(C(F)(F)F)c1` [3-(Trifluoromethyl)benzoic acid] returned a CC50 at 24 h greater than 90 µM.
Still for that read-out and setting: the result for `O=C=Nc1cccc(C(F)(F)F)c1` [3-(Trifluoromethyl)phenyl isocyanate] reads 49 µM.
`CO[Si](CCCNCCC[Si](OC)(OC)OC)(OC)OC` [3-(Trimethoxysilyl)-N-[3-(trimethoxysilyl)propyl]propan-1-amine] returned a half-maximal cytotoxic concentration (CC50) at 24 h greater than 90 µM.
The same measure, in the same setting: for `C=C(C)C(=O)OCCC[Si](OC)(OC)OC` [3-(Trimethoxysilyl)propyl methacrylate] the value was greater than 90 µM; for `CC(=O)Nc1cccc(O)c1` [3-Acetamidophenol], greater than 90 µM; for `CC(=O)c1cc(C)oc1C` [3-Acetyl-2,5-dimethylfuran], greater than 90 µM.
The compound `CC(=O)C1CCOC1=O` (stereo not shown) [3-Acetyldihydro-2(3H)-furanone] had a CC50 at 24 h greater than 100 µM.
On the same count and under the same terms, the result for `CC(=O)c1ccc2ccc3ccccc3c2c1` [3-Acetylphenanthrene] reads greater than 90 µM; that for `CC(=O)c1cccnc1` [3-Acetylpyridine], greater than 90 µM; that for `Nc1cc(C(=O)O)ccc1Cl` [3-Amino-4-chlorobenzoic acid], greater than 90 µM.
Consider `CCOc1ccc(NC(C)=O)cc1N` [3-Amino-4-ethoxyacetanilide], for which the CC50 at 24 h is greater than 90 µM.
The same measure, in the same setting: the result for `Cc1ccc(C(N)=O)cc1N` [3-Amino-4-methylbenzamide] reads greater than 90 µM.
The same measure, in the same setting: for `CCn1c2ccccc2c2cc(N)ccc21` [3-Amino-9-ethylcarbazole hydrochloride] the value was greater than 90 µM; for `CC(=O)Nc1cccc(N)c1` [3-Aminoacetanilide], greater than 90 µM.
As for `Nc1cccc(S(=O)(=O)O)c1` [3-Aminobenzenesulfonic acid], the CC50 at 24 h is greater than 90 µM.
Compound `Nc1ccc2c3c(cccc13)-c1ccccc1-2` [3-Aminofluoranthene] displayed a CC50 at 24 h greater than 90 µM.
Still for that read-out and setting: the result for `Nc1cccc(O)c1` [3-Aminophenol] reads greater than 90 µM; that for `CCO[Si](CCCN)(OCC)OCC` [3-Aminopropyltriethoxysilane], greater than 90 µM; that for `OCCCNc1ccccc1` [3-Anilinopropan-1-ol], greater than 50 µM.
Still for that read-out and setting: the result for `CC1(C)C(=O)N(Br)C(=O)N1Cl` [3-Bromo-1-chloro-5,5-dimethylhydantoin] reads greater than 90 µM; that for `OCC(CBr)(CBr)CBr` [3-Bromo-2,2-bis(bromomethyl)propanol], greater than 90 µM; that for `O=Cc1ccc(F)c(Br)c1` [3-Bromo-4-fluorobenzaldehyde], greater than 90 µM.
Still for that read-out and setting: for `O=Cc1cccc(Br)c1` [3-Bromobenzaldehyde] the value was greater than 90 µM; for `Cc1cccc(Br)c1` [3-Bromotoluene], greater than 90 µM; for `CC1=CCC2C(C1)C2(C)C` (stereo not shown) [3-Carene], greater than 90 µM.

Still in this data set, the particulars now being: rat, gh3-tre-luc cells, AC50 (uM) modified / 1000, Tox21_110001=Tox21_200121; viability, 1 nM T3 present, 24 h.
As for `Brc1cccc(-c2ccccc2)c1` [3-Bromobiphenyl], the half-maximal cytotoxic concentration (CC50) at 24 h was greater than 90 µM.

Staying with this data set, now noted: rat, gh3-tre-luc cells, AC50 (uM) modified / 1000, Tox21_110001=Tox21_400042; viability, 1 nM T3 present, 24 h.
`OCCCBr` [3-Bromo-1-propanol] registered a CC50 at 24 h greater than 90 µM.
